Test results as given in article PMC11199504, “New hemisynthetic derivatives of sphaeropsidin phytotoxins triggering severe endoplasmic reticulum swelling in cancer cells” (Scientific Reports, 2024).
Like-named read-outs stand apart in the source and are kept apart here.

Assays:
[1] = system: A549; assay: MTT colorimetric assay, A549; format: cell-based; details: Homo sapiens, 72 h treatment, mean ± SEM of six replicates of one experiment (1: 7, 13: 6 independent experiments), resistant to apoptosis, read-out: IC50 determined by MTT assays, A549
Excerpt: (§1) Cancer cell lines were obtained from either the European Collection of Cell Cultures (ECACC; Salisbury, UK) or the American Type Culture Collection (ATCC; Manassas, VA). The two glioma cell lines were the U373 (ECACC code 08061901) and Hs683 (ATCC HTB-138) cell lines. The carcinoma cell lines were the A549 non-small cell carcinoma cell line (ATCC code CCL 185) and the MCF-7 mammary breast carcinoma cell line (ATCC code HTB-22). The melanoma cell lines were the mouse B16F10 cells (ATCC code CRL-6475) and the human SKMEL-28 cells (ATCC code HTB-72). The ovarian cancer cell line A2780 and its cisplatin-resistant subline A2780cis were obtained from Sigma-Aldrich (St. Louis, MO, USA). Colon cancer HCT116 cells were obtained from ATCC (CCL-247) and the oxaliplatin-resistant subline HCT116/OxR established in the W. Berger lab[59]. The HeLa cell derivative KB-3-1 and the colchicine-selected, highly ABCB1-overexpressing subline KB-C-1 were generously donated by Dr. D. W. Shen, Bethesda, MD. RKOp53wt colon cancer cells together with the RKOp53KO (homozygous knock-out) subline[60] were generously provided by Dr. Vogelstein from John Hopkins University, Baltimore. The correct origin of all cell models was confirmed by STR during performance of the experiments. All cell lines were cultured in RPMI1640 culture medium supplemented with 10% heat-inactivated fetal bovine serum, 2% L-glutamine (0.6 mg/mL), 2% penicillin/streptomycin (200 IU/mL and 200 μg/mL) and 0.1 mg/mL gentamicin.
(§2) The MTT (3-(4,5-dimethylthiazol-2-yl)-2,5-diphenyl tetrazolium bromide) colorimetric assay has been conducted as described previously. Briefly, cells were seeded 24 h before their treatment with each compound for a period of 72 h. The concentrations tested ranged from 10 nM to 100 µM. Each assay was conducted in sextuplicates. The number of independent experiments is mentioned in the legend of the tables.

[2] = system: SKMEL-28; assay: MTT colorimetric assay, SKMEL-28; format: cell-based; details: Homo sapiens, SK-MEL-28; 72 h treatment; mean ± SEM; resistant to apoptosis; read-out: IC50 determined by MTT assays, SKMEL-28
Excerpt: as §1, §2

[3] = system: U373; assay: MTT colorimetric assay, U373; format: cell-based; details: Homo sapiens, U373 MG; 72 h treatment; mean ± SEM; resistant to apoptosis; read-out: IC50 determined by MTT assays, U373
Excerpt: as §1, §2

[4] = system: Hs683; assay: MTT colorimetric assay, Hs683; format: cell-based; details: Homo sapiens, Hs 683; 72 h treatment; mean ± SEM; sensitive to apoptosis; read-out: IC50 determined by MTT assays, Hs683
Excerpt: as §1, §2

[5] = system: B16F10; assay: MTT colorimetric assay, B16F10; format: cell-based; details: Mus musculus, B16-F10; 72 h treatment; mean ± SEM; sensitive to apoptosis; read-out: IC50 determined by MTT assays, B16F10
Excerpt: as §1, §2

[6] = system: A549, SKMEL-28, U373, MCF7, Hs683, B16F10; assay: MTT colorimetric assay, mean of the six cell lines; format: cell-based; details: for IC50: mean over the six cell lines, 72 h treatment, read-out: IC50 determined by MTT assays, Mean
Excerpt: as §1, §2

[7] = system: A2780; assay: MTT assay, A2780 (parental sensitive); format: cell-based; details: Homo sapiens, A2780, 72 h, read-out: IC50 determined by MTT assays, A2780
Excerpt: as §1, §2
(§3) SI Table 1: IC50 determined by MTT assays. Mean concentration (± standard deviation) in µM required to
(§4) reduce the viability of cells by 50% after a 72 h treatment relative to the control.
(§5) Parental sensitive models Drug-resistant models

[8] = system: RKO/P53wt; assay: MTT assay, RKO/P53wt (parental sensitive); format: cell-based; details: 72 h, read-out: IC50 determined by MTT assays, RKO/P53wt
Excerpt: as §1, §2, §3, §4, §5

[9] = system: KB-3-1; assay: MTT assay, KB-3-1 (parental sensitive); format: cell-based; details: Homo sapiens, KB 3-1, 72 h, read-out: IC50 determined by MTT assays, KB-3-1
Excerpt: as §1, §2, §3, §4, §5

[10] = system: Parental sensitive models; assay: MTT assay, mean of parental sensitive models; format: cell-based; details: 72 h, read-out: IC50 determined by MTT assays, mean of parental sensitive models
Excerpt: as §1, §2, §3, §4, §5

[11] = system: A2780R; assay: MTT assay, A2780R (cisplatin-resistant); format: cell-based; details: 72 h, read-out: IC50 determined by MTT assays, A2780R
Excerpt: as §1, §2, §3, §4, §5

[12] = system: Hct116/OxR; assay: MTT assay, Hct116/OxR (oxaliplatin-resistant); format: cell-based; details: Homo sapiens, HCT-116, 72 h, read-out: IC50 determined by MTT assays, Hct116/OxR
Excerpt: as §1, §2, §3, §4, §5

[13] = system: RKO/p53ko; assay: MTT assay, RKO/p53ko; format: cell-based; details: 72 h, read-out: IC50 determined by MTT assays, RKO/p53ko
Excerpt: as §1, §2, §3, §4, §5

[14] = system: KB-C-1; assay: MTT assay, KB-C-1 (ABCB1-overexpressing); format: cell-based; details: KBC-1, 72 h, read-out: IC50 determined by MTT assays, KB-C-1
Excerpt: as §1, §2, §3, §4, §5

[15] = system: Drug-resistant models; assay: MTT assay, mean of drug-resistant models; format: cell-based; details: 72 h, read-out: IC50 determined by MTT assays, mean of drug-resistant models
Excerpt: as §1, §2, §3, §4, §5

[16] = target: T1, human TopIIa (Homo sapiens, UniProt P11388); assay: Cell-free decatenation assay; format: biochemical
T1 construct: purchased TopoGen (Port Orange, FL, USA)
Method: The topoisomerase (Top) activity assay kit, including kinetoplast DNA (kDNA and recombinant human TopIIa enzyme, was obtained from TopoGen (Port Orange, FL, USA), agarose from PeqLab (Erlangen, Germany), 50 × TAE buffer from Roth (Karlsruhe, Germany) and ethidium bromide solution (10 mg/mL) from Sigma-Aldrich (Taufkirchen, Germany). Decatenation assays were performed as described previously[62] with slight modifications according to the manufacturer’s protocol. 100 µM of the recently described dual topoisomerase poison P8-D6 served as a positive control, and 5% DMSO as a solvent control. Briefly, the compounds were dissolved in DMSO and diluted to 20× the concentration to be tested. 1 µL of the resulting stock solutions were mixed with 18 µL of a buffer containing 200 ng kDNA and 1 mM ATP. Subsequently, 1 µL of a 1u/µL dilution of TopIIa enzyme was added and incubated at 37 °C for 30 min. Afterwards, the reaction was stopped by addition of Stop buffer, and electrophoresis was carried out on a 1% agarose gel in TAE buffer. The gel was stained with 0.5 µg/mL ethidium bromide, washed with water, and fluorescence images were captured with the LAS4000 system (Fujifilm, Duesseldorf, Germany). All steps were carried out on ice.

T1 sequence (P11388 whole entry): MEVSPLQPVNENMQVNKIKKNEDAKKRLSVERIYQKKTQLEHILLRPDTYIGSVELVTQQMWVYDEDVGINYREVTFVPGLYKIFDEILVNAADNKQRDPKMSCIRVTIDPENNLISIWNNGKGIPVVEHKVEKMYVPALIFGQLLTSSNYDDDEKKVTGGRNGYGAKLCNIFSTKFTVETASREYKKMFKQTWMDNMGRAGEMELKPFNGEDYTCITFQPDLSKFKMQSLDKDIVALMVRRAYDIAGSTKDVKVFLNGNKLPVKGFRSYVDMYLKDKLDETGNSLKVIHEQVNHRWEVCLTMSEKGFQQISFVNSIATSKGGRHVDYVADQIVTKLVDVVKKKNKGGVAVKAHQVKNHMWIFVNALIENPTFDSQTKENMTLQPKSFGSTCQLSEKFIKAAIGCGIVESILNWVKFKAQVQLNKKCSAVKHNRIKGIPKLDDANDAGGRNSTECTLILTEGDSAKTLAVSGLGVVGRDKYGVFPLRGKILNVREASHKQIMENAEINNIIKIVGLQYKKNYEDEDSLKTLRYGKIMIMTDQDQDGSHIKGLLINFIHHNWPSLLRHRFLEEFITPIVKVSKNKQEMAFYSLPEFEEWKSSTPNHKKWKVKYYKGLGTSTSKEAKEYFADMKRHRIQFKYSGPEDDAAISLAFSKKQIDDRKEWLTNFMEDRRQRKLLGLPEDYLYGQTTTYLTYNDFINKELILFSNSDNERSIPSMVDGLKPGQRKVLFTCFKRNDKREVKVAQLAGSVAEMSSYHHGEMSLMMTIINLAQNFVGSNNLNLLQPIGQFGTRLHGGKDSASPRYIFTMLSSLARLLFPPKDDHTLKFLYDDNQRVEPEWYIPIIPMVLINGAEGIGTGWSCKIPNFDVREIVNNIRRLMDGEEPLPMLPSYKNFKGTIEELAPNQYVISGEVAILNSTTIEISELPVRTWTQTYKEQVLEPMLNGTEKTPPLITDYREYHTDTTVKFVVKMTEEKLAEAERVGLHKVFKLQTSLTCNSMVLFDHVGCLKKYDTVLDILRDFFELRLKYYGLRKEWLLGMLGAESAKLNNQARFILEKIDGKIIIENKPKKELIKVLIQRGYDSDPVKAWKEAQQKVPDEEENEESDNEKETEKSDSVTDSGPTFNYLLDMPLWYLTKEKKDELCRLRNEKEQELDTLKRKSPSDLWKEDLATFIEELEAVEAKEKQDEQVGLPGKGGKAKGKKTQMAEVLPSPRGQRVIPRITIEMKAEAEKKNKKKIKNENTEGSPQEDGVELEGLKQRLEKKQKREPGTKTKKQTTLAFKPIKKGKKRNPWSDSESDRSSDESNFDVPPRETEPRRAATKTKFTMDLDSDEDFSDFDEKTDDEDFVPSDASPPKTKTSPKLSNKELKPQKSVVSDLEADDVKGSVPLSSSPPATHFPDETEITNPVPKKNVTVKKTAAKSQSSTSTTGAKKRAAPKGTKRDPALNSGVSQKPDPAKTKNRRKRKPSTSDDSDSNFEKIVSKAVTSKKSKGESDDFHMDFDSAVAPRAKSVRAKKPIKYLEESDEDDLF

Structure (SMILES): C=C[C@]1(C)C=C2C(=O)[C@@]3(O)OC(=O)[C@@]4(CCCC(C)(C)[C@H]34)[C@@]2(O)CC1 [Compound 1, sphaeropsidin A, reference compound]
- IC50 [1]: 1710 ± 260 nM
- IC50 [2]: 2320 ± 150 nM
- IC50 [3]: 2130 ± 170 nM
- IC50 [4]: 2310 ± 230 nM
- IC50 [5]: 1550 ± 270 nM
- IC50 ([6]; 72 h): 2070 ± 150 nM
- IC50 [7]: 2400 ± 500 nM
- IC50 [8]: 1900 ± 300 nM
- IC50 [9]: 5400 ± 1000 nM
- IC50 [10]: 3000 nM
- IC50 [11]: 2400 ± 100 nM
- IC50 [12]: 1700 ± 400 nM
- IC50 [13]: 1500 ± 100 nM
- IC50 [14]: 8100 ± 700 nM
- IC50 [15]: 4000 nM
- inhibition at 500 µM ([16]; at 500 µM, read-out: TopoIIa inhibition): ~50%

Structure (SMILES): CC1(C=CCCCc2ccc3ccc4cccc5ccc2c3c45)C=C2C(=O)C3(O)OC(=O)C4(CCCC(C)(C)C34)C2(O)CC1 (stereo not drawn) [Compound 13]
- IC50 [1]: 380 ± 30 nM
- IC50 [2]: 310 ± 10 nM
- IC50 [3]: 570 ± 80 nM
- IC50 [4]: 350 ± 20 nM
- IC50 [5]: 290 ± 10 nM
- IC50 ([6]; 72 h): 300 nM
- IC50 fold lower than compound 1 ([6]; cancer cell panel, MTT): 5–10 times
- IC50 [6]: 370 ± 40 nM
- IC50 [7]: 1600 ± 20 nM
- IC50 [8]: 1100 nM
- IC50 [9]: 1900 ± 50 nM
- IC50 [10]: 1000 nM
- IC50 [11]: 1600 ± 90 nM
- IC50 [12]: 800 ± 50 nM
- IC50 [13]: 1500 ± 50 nM
- IC50 [14]: 3200 ± 600 nM
- IC50 [15]: 2000 nM
- concentration from which TopIIa inhibition trend was observed [16]: ≥ 1 µM
- concentration significantly different from the solvent control (TopIIa inhibition) [16]: ≥ 1 µM

Structure (SMILES): CC1(C=CCCCc2ccc3ccc4cccc5ccc2c3c45)C=C2C(O)C3(O)OC(=O)C4(CCCC(C)(C)C34)C2(O)CC1 (stereo not drawn) [Compound 16]
- IC50 [1]: 6610 ± 80 nM
- IC50 [2]: 7240 ± 70 nM
- IC50 [3]: 8880 ± 190 nM
- IC50 [4]: 7340 ± 200 nM
- IC50 [5]: 5110 ± 420 nM
- IC50 ([6]; 72 h): 6860 ± 530 nM
- IC50 [7]: 7700 ± 900 nM
- IC50 [8]: 5600 ± 200 nM
- IC50 [9]: 13800 ± 1400 nM
- IC50 [10]: 8000 nM
- IC50 [11]: 8300 ± 300 nM
- IC50 [12]: 6600 ± 1300 nM
- IC50 [13]: 6900 ± 400 nM
- IC50 [14]: 15200 ± 1300 nM
- IC50 [15]: 9000 nM
- concentration from which TopIIa inhibition trend was observed [16]: ≥ 1 µM
